{"source": "patent US20250339366A1", "about": "“AN ORODISPERSIBLE TABLET OF RIVAROXABAN” (INTAS PHARMACEUTICALS LTD., priority 2022, published 2025)", "origin": "cited, not measured here", "data": [{"smiles": "O=C(NC[C@H]1CN(c2ccc(N3CCOCC3=O)cc2)C(=O)O1)c1ccc(Cl)s1", "note": "[Rivaroxaban, 5-Chloro-N-({(5S)-2-oxo-3-[4-(3-oxo-4-morpholinyl)phenyl]-1,3-oxzolidin-5-yl}methyl)-2-thiophene-carboxamide]", "values": [{"measurement": "Solubility in water", "result": "practically insoluble in water"}]}]}
